The test relates to CD2F1 mice, L1210 leukemia ip, survival T/C. The experiment in a line: NCI In Vivo Anticancer Drug Screen. Data for tumor model L1210 Leukemia (intraperitoneal) in CD2F1 (CDF1) mice. As to conditions: higher = longer survival. An outline of the steps:
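Implant tumor; dose compound or vehicle; measure endpoint in both groups; report treated divided by control.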

Setting [1] is: endpoint: mean survival time, dose: 100.0 mg/kg/injection, schedule: Q01DX001 (ip), vehicle: saline with Tween-80.
Where [2] appears, read: endpoint: mean survival time, dose: 100.0 mg/kg/injection, schedule: Q01DX009 (ip), vehicle: saline with Tween-80.
The mark [3] stands for this setting: endpoint: mean survival time, dose: 200.0 mg/kg/injection, schedule: Q01DX001 (ip), vehicle: saline with Tween-80.
The mark [4] stands for this setting: endpoint: mean survival time, dose: 200.0 mg/kg/injection, schedule: Q01DX009 (ip), vehicle: saline with Tween-80.
Setting [5] is: endpoint: mean survival time, dose: 400.0 mg/kg/injection, schedule: Q01DX001 (ip), vehicle: saline with Tween-80.
[6] abbreviates: endpoint: mean survival time, dose: 100.0 mg/kg/injection, schedule: Q04DX003 (ip), vehicle: saline with Tween-80.
[7] abbreviates: endpoint: mean survival time, dose: 200.0 mg/kg/injection, schedule: Q04DX003 (ip), vehicle: saline with Tween-80.
Where [8] appears, read: endpoint: mean survival time, dose: 400.0 mg/kg/injection, schedule: Q04DX003 (ip), vehicle: saline with Tween-80.
[9] abbreviates: endpoint: mean survival time, dose: 50.0 mg/kg/injection, schedule: Q01DX009 (ip), vehicle: saline with Tween-80.
The mark [10] stands for this setting: endpoint: mean survival time, dose: 100.0 mg/kg/injection, schedule: Q04DX002 (ip), vehicle: saline with Tween-80.
Where [11] appears, read: endpoint: mean survival time, dose: 200.0 mg/kg/injection, schedule: Q04DX002 (ip), vehicle: saline with Tween-80.
[12] abbreviates: endpoint: mean survival time, dose: 400.0 mg/kg/injection, schedule: Q04DX002 (ip), vehicle: saline with Tween-80.
Setting [13] is: endpoint: mean survival time, dose: 12.5 mg/kg/injection, schedule: Q01DX009 (ip), vehicle: saline with Tween-80.
[14] abbreviates: endpoint: mean survival time, dose: 12.5 mg/kg/injection, schedule: Q01DX005 (ip), vehicle: water.
Setting [15] is: endpoint: mean survival time, dose: 25.0 mg/kg/injection, schedule: Q01DX005 (ip), vehicle: water.
Where [16] appears, read: endpoint: mean survival time, dose: 50.0 mg/kg/injection, schedule: Q01DX005 (ip), vehicle: water.
Where [17] appears, read: endpoint: mean survival time, dose: 100.0 mg/kg/injection, schedule: Q01DX005 (ip), vehicle: water.

Values joined by “and” are separate entries in the source; they are usually repeats but may differ in a detail not shown here. Equal values may be shown once. Inconclusive results and toxic doses are left out.

As for `CCNCC(=O)O[C@]1(CC)C(=O)OCc2c1cc1n(c2=O)Cc2cc3ccccc3nc2-1`, the T/C (endpoint: median survival time, dose: 7.5 mg/kg/injection, schedule: Q04DX002 (ip), vehicle: saline) is 122 % of control and 110 % of control; the T/C (endpoint: median survival time, dose: 7.5 mg/kg/injection, schedule: Q04HX004 (iv), vehicle: dextrose) was 164 % of control; the T/C (endpoint: median survival time, dose: 7.5 mg/kg/injection, schedule: Q04HX004 (iv), vehicle: other) was 179 % of control; the T/C (endpoint: median survival time, dose: 15.0 mg/kg/injection, schedule: Q04DX002 (ip), vehicle: saline) is 117 % of control; the T/C (endpoint: median survival time, dose: 15.0 mg/kg/injection, schedule: Q04HX004 (iv), vehicle: dextrose) was 198 % of control; the T/C (endpoint: median survival time, dose: 15.0 mg/kg/injection, schedule: Q04HX004 (iv), vehicle: other) is 195 % of control. For the same compound, the T/C runs as follows: (endpoint: median survival time, dose: 30.0 mg/kg/injection, schedule: Q04DX002 (ip), vehicle: saline) 170 % of control and 172 % of control; (endpoint: median survival time, dose: 30.0 mg/kg/injection, schedule: Q04HX004 (iv), vehicle: dextrose) 208 % of control; (endpoint: median survival time, dose: 30.0 mg/kg/injection, schedule: Q04HX004 (iv), vehicle: other) 223 % of control; (endpoint: median survival time, dose: 40.0 mg/kg/injection, schedule: Q04HX004 (iv), vehicle: other) 235 % of control.

In the case of `O=[N+]([O-])c1ccc2nsnc2c1`, the T/C was 103 % of control under setting [1]; 103 % of control under setting [2]; 106 % of control under setting [3]; 114 % of control under setting [4]; 107 % of control under setting [5].

Consider `CCCC(O)CNCc1ccc2c3c(cccc13)CC2` (stereo not drawn), for which the T/C reads like this: (endpoint: mean survival time, dose: 25.0 mg/kg/injection, schedule: Q01DX001 (ip), vehicle: Klucel (hydroxypropylcellulose) (HPC)) 93 % of control; (endpoint: mean survival time, dose: 50.0 mg/kg/injection, schedule: Q01DX001 (ip), vehicle: Klucel (hydroxypropylcellulose) (HPC)) 101 % of control.

For `Cc1ccc(S(=O)(=O)OCC2OCOC(COS(=O)(=O)c3ccc(C)cc3)C(O)C2O)cc1` (stereo not drawn), the T/C under setting [2] is 101 % of control; the T/C under setting [4] is 98 % of control; the T/C (endpoint: mean survival time, dose: 400.0 mg/kg/injection, schedule: Q01DX009 (ip), vehicle: saline with Tween-80) is 96 % of control.

As to `O=C1CSC(=S)N1/N=C/c1ccc(Cl)s1`, the T/C (endpoint: mean survival time, dose: 75.0 mg/kg/injection, schedule: Q01DX001 (ip), vehicle: other) is 96 % of control.

As for `Cn1c2ccccc2c(=O)c2ccc(Cl)cc21`, the T/C was 95 % of control under setting [6], 96 % of control under setting [7] and 96 % of control under setting [8].

Consider `Cc1cc(Br)cnc1Cl`, for which the T/C is 97 % of control under setting [1]; 92 % of control under setting [6]; 106 % of control under setting [3]; 97 % of control under setting [7]; 101 % of control under setting [5]; 96 % of control under setting [8].

`COc1cc(Cl)ccc1NC(=O)Oc1ccc(Cl)cc1Br`: the T/C was 96 % of control under setting [9], 96 % of control under setting [2] and 96 % of control under setting [4].

With `O=P(OCC(F)(F)F)(OCC(F)(F)F)OCC(F)(F)F`, the T/C is 98 % of control under setting [10], 102 % of control under setting [11] and 105 % of control under setting [12].

Turning to `O=C(Sc1ccc([N+](=O)[O-])cc1)C(=O)Sc1ccc([N+](=O)[O-])cc1`, the T/C is 91 % of control under setting [13] and 98 % of control under setting [9].

For `CC(=O)CCC(=O)C1SCCS1`, the T/C is, setting by setting: under setting [10], 101 % of control; under setting [11], 97 % of control; under setting [12], 101 % of control.

`NS(=O)(=O)c1cccc(C(=O)O)c1`: the T/C is 98 % of control under setting [1], 94 % of control under setting [3] and 98 % of control under setting [5].

`CC[N+](C)(CC)CCCOC(=O)C(c1ccccc1)c1ccccc1`: the T/C is 96 % of control (endpoint: mean survival time, dose: 6.25 mg/kg/injection, schedule: Q01DX009 (ip), vehicle: saline with Tween-80); 96 % of control under setting [13]; 94 % of control (endpoint: mean survival time, dose: 25.0 mg/kg/injection, schedule: Q01DX009 (ip), vehicle: saline with Tween-80).

Take `CCOC(=O)Nc1cccc(F)c1C`: the T/C by setting is: under setting [10], 105 % of control; under setting [11], 109 % of control; under setting [12], 94 % of control.

Turning to `O=C(Cl)c1ccc([N+](=O)[O-])cc1`, the T/C is 96 % of control under setting [9], 101 % of control under setting [2] and 104 % of control under setting [4].

Turning to `CC1(C)OCC(C(=O)C(OC(=O)c2ccccc2)C2COC(C)(C)O2)O1` (stereo not drawn), the T/C (endpoint: mean survival time, dose: 50.0 mg/kg/injection, schedule: Q01DX009 (ip), vehicle: Klucel (hydroxypropylcellulose) (HPC)) was 94 % of control; the T/C (endpoint: mean survival time, dose: 100.0 mg/kg/injection, schedule: Q01DX009 (ip), vehicle: Klucel (hydroxypropylcellulose) (HPC)) was 88 % of control; the T/C (endpoint: mean survival time, dose: 200.0 mg/kg/injection, schedule: Q01DX009 (ip), vehicle: Klucel (hydroxypropylcellulose) (HPC)) was 98 % of control.

With `CN(CCO)C1=C(N2CC2)C(=O)C(N(C)CCO)=C(N2CC2)C1=O`, the T/C was 115 % of control and 117 % of control (endpoint: mean survival time, dose: 0.5 mg/kg/injection, schedule: Q01DX009 (ip), vehicle: saline); 155 % of control (endpoint: mean survival time, dose: 1.0 mg/kg/injection, schedule: Q01DX009 (ip), vehicle: saline); 201 % of control and 211 % of control (endpoint: mean survival time, dose: 1.5 mg/kg/injection, schedule: Q01DX009 (ip), vehicle: saline).

For `Nc1nc(N)c2c(n1)=NC(c1cccc3ccccc13)N=2` (stereo not drawn), the T/C runs as follows: (endpoint: mean survival time, dose: 6.25 mg/kg/injection, schedule: Q01DX005 (ip), vehicle: water) 92 % of control; under setting [14], 89 % of control; under setting [15], 91 % of control; under setting [16], 92 % of control; under setting [17], 89 % of control; (endpoint: mean survival time, dose: 200.0 mg/kg/injection, schedule: Q01DX005 (ip), vehicle: other) 96 % of control. Further, the T/C (endpoint: mean survival time, dose: 400.0 mg/kg/injection, schedule: Q01DX005 (ip), vehicle: other) is 96 % of control.

Consider `Cc1cc(C)nc(NC(=S)N/N=C/c2ccccn2)n1`, for which the T/C under setting [10] is 98 % of control, the T/C under setting [11] is 98 % of control and the T/C under setting [12] is 106 % of control.

`CSc1nc(N)c2c(C(N)=O)cc(=O)n(C3OC(CO)C(O)C3O)c2n1` (stereo not drawn): the T/C is, setting by setting: under setting [14], 96 % of control; under setting [15], 96 % of control; under setting [16], 96 % of control; under setting [17], 93 % of control; (endpoint: mean survival time, dose: 200.0 mg/kg/injection, schedule: Q01DX005 (ip), vehicle: water) 101 % of control.

As to `C1CN(CCSSCCN2CCOCC2)CCO1`, the T/C is 100 % of control (endpoint: mean survival time, dose: 50.0 mg/kg/injection, schedule: Q01DX009 (ip), vehicle: saline sonified); 100 % of control (endpoint: mean survival time, dose: 100.0 mg/kg/injection, schedule: Q01DX009 (ip), vehicle: saline sonified); 104 % of control under setting [6]; 103 % of control (endpoint: mean survival time, dose: 200.0 mg/kg/injection, schedule: Q01DX009 (ip), vehicle: saline sonified); 104 % of control under setting [7].

For `CN(C)/N=N\c1ncn(C2OC(CO)C(O)C2O)c1C(N)=O` (stereo not drawn), the T/C (endpoint: mean survival time, dose: 100.0 mg/kg/injection, schedule: Q01DX005 (ip), vehicle: saline) was 123 % of control.

Consider `O=C(Cc1ccccc1)SC(=O)Cc1ccccc1`, for which the T/C is, setting by setting: under setting [1], 102 % of control; under setting [3], 94 % of control; under setting [5], 102 % of control.

As to `O=c1[nH]cc(Br)c(=O)[nH]1`, the T/C runs as follows: under setting [10], 101 % of control; under setting [11], 97 % of control; under setting [12], 106 % of control.

For `CC(=O)c1ccc(Cc2ccc(C(C)=O)cc2)cc1`, the T/C is, setting by setting: (endpoint: mean survival time, dose: 100.0 mg/kg/injection, schedule: Q04DX003 (ip), vehicle: Klucel (hydroxypropylcellulose) (HPC)) 103 % of control; (endpoint: mean survival time, dose: 200.0 mg/kg/injection, schedule: Q04DX003 (ip), vehicle: Klucel (hydroxypropylcellulose) (HPC)) 98 % of control; (endpoint: mean survival time, dose: 400.0 mg/kg/injection, schedule: Q04DX003 (ip), vehicle: Klucel (hydroxypropylcellulose) (HPC)) 97 % of control.

On to `NC(=O)CC(N)CO` (stereo not drawn), for which the T/C is 93 % of control (endpoint: mean survival time, dose: 50.0 mg/kg/injection, schedule: Q01DX009 (ip), vehicle: saline); 98 % of control (endpoint: mean survival time, dose: 100.0 mg/kg/injection, schedule: Q01DX009 (ip), vehicle: saline); 95 % of control (endpoint: mean survival time, dose: 200.0 mg/kg/injection, schedule: Q01DX009 (ip), vehicle: saline); 98 % of control (endpoint: mean survival time, dose: 400.0 mg/kg/injection, schedule: Q01DX009 (ip), vehicle: saline).

The values are drawn from PubChem BioAssay AID256 (DTP/NCI, 2004).
